Patent publication EP3147364A1, “ANTIVIRAL AGENTS COMPRISING AN OLIGONUCLEOTIDE-LIPID CONJUGATE FORMING G-QUADRUPLEX” (priority 2015, dated 2017)

Assays:
NL4.3-Ren [1] = assay type: cell-based, HIV-1; details: text does not say which of assays A and B (Figs. 4 and 5)
NL4.3-Ren [2] = experiment: Transfection experiment: pNL4.3-Ren viruses produced in 293T cells in presence of drug, quantified and tested for infectivity on SupT1 cells; assay type: cell-based, HIV-1; details: drug added to transfected 293T cells for 24h; supernatants on SupT1 cells (Fig. 7a)
[3] = Cytotoxicity (viability) assay in Huh7/Scr cells (CytoTox-Glo); assay type: cell-based; details: human
Luc-Jc1 virus = experiment: HCVcc infection: Luc-Jc1 virus on Huh7/Scr cells, Firefly luciferase

**Q.** With `CCCC/C=C\C/C=C\CCCCCCCCCOCC(O)CO` (centres unmarked) [3-[(10Z,13Z)-octadeca-10,13-dien-1-yloxy]propane-1,2-diol] as the compound, how does the antiviral effect (NL4.3-Ren [1]) read?
**A.** The antiviral effect was “no effect”.

**Q.** For `CC(C)CN(C[C@@H](O)[C@H](Cc1ccccc1)NC(=O)O[C@H]1CCOC1)S(=O)(=O)c1ccc(N)cc1` [APV, Amprenavir], which “inhibition of infection by viruses produced in presence of drug” value (NL4.3-Ren [2]) is on record?
**A.** Its value is “inhibition of infection is detected”.

**Q.** With `Cc1nc(Nc2ncc(C(=O)Nc3c(C)cccc3Cl)s2)cc(N2CCN(CCO)CC2)n1` [Dasatinib] as the compound, how does the CC50 at 72 h [3] read?
**A.** Its CC50 at 72 h is 20.3 µM.

**Q.** And the EC50 (Luc-Jc1 virus; Hepatitis C virus, Huh-7, 72 h)?
**A.** The EC50 was 1.47 µM.

**Q.** What about the SI (Luc-Jc1 virus; Selectivity Index from EC50 and CC50) of the same compound?
**A.** Its SI is 13.81.
